Measured values as given in patent US6987106B1, “1,4-diazabicyclo[3.2.2]nonane-4-carboxylates and carboxamide derivates, production and use thereof in therapeutics” (Sanofi-Aventis, priority 1999, dated 2006).

- melting point: 206 to 207 °C
Structure (SMILES): Br.CN(C(=O)N1CCN2CCC1CC2)c1ccccc1
